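In this assay, cells in 96-well plates receive the compound at five concentrations for 48 hours. Endpoints are linearly interpolated between the surrounding concentrations. At the GI50, growth is halved.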 Active and inactive are the calls of the source. No stated cut-off is given here; in the data, active = GI50 up to about 1.1 µM and inactive = higher.
What was measured:
Experiment in all cases: inhibition of tumour cell growth, NCI panel, 48 h
786-0 = test system: 786-0
A498 = test system: A498
CAKI-1 = test system: CAKI-1
EKVX = test system: EKVX
HCT-116 = test system: HCT-116
HCT-15 = test system: HCT-15
HL-60 = test system: HL-60
HOP-62 = test system: HOP-62
KM12 = test system: KM12
MDA-MB-435 = test system: MDA-MB-435
MDA-N = test system: MDA-N
MOLT-4 = test system: MOLT-4
NCI-H226 = test system: NCI-H226
OVCAR-4 = test system: OVCAR-4
SK-MEL-28 = test system: SK-MEL-28
SN12C = test system: SN12C
SNB-75 = test system: SNB-75
T47D = test system: T47D
TK-10 = test system: TK-10
UACC-62 = test system: UACC-62

Structure (SMILES) | GI50 (786-0) | GI50 (A498) | GI50 (CAKI-1) | GI50 (EKVX) | GI50 (HCT-116) | GI50 (HCT-15) | GI50 (HL-60) | GI50 (HOP-62) | GI50 (KM12) | GI50 (MDA-MB-435) | GI50 (MDA-N) | GI50 (MOLT-4) | GI50 (NCI-H226) | GI50 (OVCAR-4) | GI50 (SK-MEL-28) | GI50 (SN12C) | GI50 (SNB-75) | GI50 (T47D) | GI50 (TK-10) | GI50 (UACC-62)
c1ccc(CN[C@]23C4C5CC6C7C5C2C7[C@@](NCc2ccccc2)(C64)N3Cc2ccccc2)cc1 (stereo not given in full) | > 100 µM (inactive) | > 100 µM (inactive) | > 100 µM (inactive) | > 100 µM (inactive) | > 100 µM (inactive) | > 100 µM | > 100 µM (inactive) | > 100 µM (inactive) | > 100 µM (inactive) | > 100 µM (inactive) | > 100 µM (inactive) | > 100 µM (inactive) | > 100 µM (inactive) | > 100 µM (inactive) | > 100 µM (inactive) | > 100 µM (inactive) | > 100 µM (inactive) | > 100 µM (inactive) | > 100 µM (inactive) | > 100 µM (inactive)
Oc1cccc2c(Cl)ccnc12 | 10.9 µM (inactive) | 15.8 µM (inactive) | 2.39 µM (inactive) | 11.7 µM (inactive) | 0.279 µM (active) | 0.305 µM | 0.124 µM (active) | 1.95 µM (inactive) | 4.93 µM (inactive) | 2.67 µM (inactive) | 3.58 µM (inactive) | 0.376 µM (active) | 7.45 µM (inactive) | 1.7 µM (inactive) | 7.69 µM (inactive) | 1.2 µM (inactive) | 28.5 µM (inactive) | 0.397 µM (active) | 44.3 µM (inactive) | 0.362 µM (active)
COc1c2c(cc3c1OCO3)C13C=CC(OC)CC1N(CC3)C2.[O-][Cl+3]([O-])([O-])O (stereo not given) | > 100 µM (inactive) | > 100 µM (inactive) | > 100 µM (inactive) | > 100 µM (inactive) | > 100 µM (inactive) | 28.4 µM | 39.4 µM (inactive) | > 100 µM (inactive) | 51.1 µM (inactive) | 34.3 µM (inactive) | 37.3 µM (inactive) | 36.4 µM (inactive) | > 100 µM (inactive) | 49.3 µM (inactive) | > 100 µM (inactive) | > 100 µM (inactive) | > 100 µM (inactive) | > 100 µM (inactive) | > 100 µM (inactive) | > 100 µM (inactive)
CNC(=O)/C(=C/c1ccc(OC)cc1)c1cc(OC)c(OC)c(OC)c1 | 3.47 µM (inactive) | 3.51 µM (inactive) | 2.47 µM (inactive) | 10.1 µM (inactive) | 1.55 µM (inactive) | 0.743 µM | 0.493 µM (active) | 2.27 µM (inactive) | 0.598 µM (active) | 0.281 µM (active) | 0.206 µM (active) | 2.33 µM (inactive) | 10.3 µM (inactive) | 21.3 µM (inactive) | 2.77 µM (inactive) | 5.2 µM (inactive) | 1.14 µM (inactive) | > 100 µM (inactive) | > 44.1 µM (inactive) | 0.67 µM (active)
c1c2c(cc3c1OCO3)-c1cc3ccc4c(c3c[n+]1CC2)OCO4 [COPTISINE CHLORIDE] | 4.2 µM (inactive) | 4.73 µM (inactive) | > 12.5 µM (inactive) | 7.71 µM (inactive) | 0.447 µM (active) | 0.638 µM | 0.406 µM (active) | 1.4 µM (inactive) | 0.925 µM (active) | 0.308 µM (active) | 0.299 µM (active) | 1.29 µM (inactive) | 1.92 µM (inactive) | 5.09 µM (inactive) | 1.2 µM (inactive) | 2.09 µM (inactive) | 1.28 µM (inactive) | 3.13 µM (inactive) | > 12.5 µM (inactive) | 0.891 µM (active)
C[C@@H]1CC[C@@]2(OC1)O[C@H]1[C@@H](O)[C@H]3[C@@H]4CC[C@H]5C[C@@H](O[C@@H]6O[C@H](CO)[C@H](O[C@@H]7O[C@H](CO)C(O)[C@H](O[C@@H]8OC[C@@H](O)[C@H](O)[C@H]8O)[C@H]7O[C@@H]7O[C@H](CO)[C@H](O)[C@H](O[C@@H]8O[C@H](CO)[C@@H](O)[C@H](O)[C@H]8O)[C@H]7O)[C@H](O)[C@H]6O)[C@H](O)C[C@]5(C)[C@H]4CC[C@]3(C)[C@H]1[C@@H]2C (stereo not given in full) [DIGITONIN] | 1.61 µM (inactive) | 6.18 µM (inactive) | 1.39 µM (inactive) | 3.13 µM (inactive) | 1.95 µM (inactive) | 4.03 µM | 2.9 µM (inactive) | 2.37 µM (inactive) | 2.12 µM (inactive) | 11.2 µM (inactive) | 3.33 µM (inactive) | 3.9 µM (inactive) | 1.51 µM (inactive) | 1.97 µM (inactive) | 2.61 µM (inactive) | 2.97 µM (inactive) | 2.83 µM (inactive) | 3 µM (inactive) | 2.49 µM (inactive) | 4 µM (inactive)
O=C1c2ccccc2S(=O)(=O)c2cc(-c3nn[nH]n3)ccc21 [DOXANTRAZOLE] | > 100 µM (inactive) | > 100 µM (inactive) | > 87.3 µM (inactive) | > 100 µM (inactive) | > 100 µM (inactive) | > 100 µM | > 100 µM (inactive) | > 100 µM (inactive) | > 100 µM (inactive) | > 100 µM (inactive) | > 100 µM (inactive) | > 100 µM (inactive) | > 100 µM (inactive) | > 100 µM (inactive) | > 100 µM (inactive) | > 100 µM (inactive) | > 100 µM (inactive) | > 76.4 µM (inactive) | > 100 µM (inactive) | > 100 µM (inactive)

— ChEMBL document CHEMBL1201862, “PubChem BioAssay data set” (2004)
